{"source": "patent US5770604A", "about": "“Aconitine compound and an antipyretic/analgesic/anti-inflammatory agent” (priority 1994, dated 1998)", "key": {"[1]": {"system": "pain threshold (tail-pressure)", "assay": "Tail-pressure method, comparison with morphine (i.v.)", "format": "in vivo, mice (Std:ddY, male)", "conditions": "for Inhibition rate: mean ± standard error", "experimental": "(2) Comparison with Morphine\nStd:ddY Strain male mice (20-25 g) were fasted for one day before the experiment, and were used. In this experiment, the tartaric acid salt of a compound of number (2) in Table 1 and morphine hydrochloride as a possitive control were used. This tartaric acid salt was dissolved in 0.9% physiological saline solution at the rates of 5 mg/2 ml, 3 mg/2 ml and 1 mg/2 ml. Morphine hydrochloride was dissolved in 0.9% physiological saline solution at the rates of 5 mg/2 ml, 3 mg/2 ml and 1 mg/2 ml. As a negative control, 0.9% phisiological saline solution was used. A tail-pressure apparatus was used in this experiments. Before the administration of test compounds, the pain threshold was measured twice at intervals of 30 minutes and those mice indicating a pain threshold of 50 to 100 mmHg were selected and used. The pain threshold of each mouse was measured at 10, 20 and 30 minutes after test compound solution mentioned above was administered at 2 ml/kg, i.v. 0.9% Physiological saline solution as a control was administered i.v. The results were described as an inhibition rate (%) indicating in the preceding paragraph (1)."}, "[2]": {"system": "pain threshold (tail-pressure)", "assay": "Tail-pressure method, experiment combined with morphine administration", "format": "in vivo, mice (Std:ddY, male)", "conditions": "for Inhibition rate: mean ± standard error, n = 7", "experimental": "(3) Experiment Combined with Morphine Administration\nStd:ddY Strain male mice (20-25 g) were fasted for one day before the experiment, and were used. In this experiment, the tartaric acid salt of a compound of number (2) in Table 1 and morphine hydrochloride were used. The tartaric acid salt of a compound of number (2) was dissolved in 0.9% physiological saline solution at the rate of 7 mg/10 ml. Morphine hydrochloride was dissolved in 0.9% physiological saline solution at the rates of 5 mg/2 ml, 3 mg/2 ml and 1 mg/2 ml. As a control, 0.9% phisiological saline solution was used. A tail-pressure apparatus was used in this experiments. Before the administration of test compounds, the pain threshold was measured twice at intervals of 30 minutes and those mice indicating a pain threshold of 50 to 100 mmHg were selected and used. Mice was divided in the following four groups, (i) control group, (ii) the administration group of the tartaric acid salt of a compound of number (2), (iii) the administration group of morphine hydrochloride and (iv) the combined administration group with the tartaric acid salt of a compound of number (2) and morphine hydrochloride. In the administration group of the tartaric acid salt of a compound of number (2), 0.9% physiological saline solution of this tartaric acid salt mentioned above was injected s.c. at the rate of 10 ml/kg and, 30 minutes later, 0.9% physiological saline solution was injected i.v. at the rate of 2 ml/kg. In the administration group of morphine hydrochloride, 0.9% physiological saline solution was injected s.c. at the rate of 10 ml/kg and, 30 minutes later, the above physiological saline solution of morphine hydrochloride was injected i.v. at the rate of 2 ml/kg. In the combined administration group with the tartaric acid salt of a compound of number (2) and morphine hydrochloride,the above physiological saline solution of the tartaric acid salt of a compound of number (2) was injected s.c. at the rate of 10 ml/kg and, 30 minutes later, the above physiological saline solution of morphine hydrochloride was injected i.v. at the rate of 2 ml/kg. In control group, 0.9% physiological saline solution was injected s.c. at the rate of 10 ml/kg and, 30 minutes later, 0.9% physiological saline solution was injected i.v. at the rate of 2 ml/kg. Each pain threshold was measured 10, 20 and 30 minutes after an intravenous injection. The results were described in Table 9 as an inhibition rate (%) indicating in the preceding paragraph (1)."}, "yeast-induced fever": {"system": "yeast-induced fever", "assay": "Antipyretic activity on yeast-induced fever in rats", "format": "in vivo, rats (Wistar, male)", "conditions": "rat, 2 hours after administration", "experimental": "Measurement of Antipyretic Activity on Yeast-Induced Fever in Rats\nWistar Strain male rats (150-190 g) were fasted for one day before the experiment, and were used. Compounds of number (1) and (2) in Table 1 were formed to the tartaric acid salt and these salts were dissolved in 0.9% physiological saline solution at the rate of 10 mg/10 ml and these solution were used as test compound solution. In a control, 0.9% physiological saline solution was used. After rat rectal temperature was measured, 1 ml/100 g of body weight of 7.5% yeast/0.9% physiological saline solution was injected s.c. at dorsal position. Then, rat rectal temperature was measured at 4 hour after the injection of yeast and rats showing the increase rectal temperature by 1 degree or more were selected and used. Test compound solution was administered s.c. at 5 hours after the injection of yeast. The rectal temperature was measured 2 hours after the administration of test compound solution. The results were described with the difference between the rectal temperature before and after the administration of test compound solution."}}, "data": [{"smiles": "CCN1CC2(COC)C(O)CC(OC)C34C5CC6(O)C(OC)C(OC(C)=O)C(O)(C5C6OC(=O)c5ccc(Cl)cc5)C(C(OC)C23)C14", "note": "(centres unmarked) [(2), 15-O-acetyl-14-O-p-chlorobenzoylaconine]", "values": [{"measurement": "Inhibition rate", "setting": "[1]; 1 mg/kg i.v., 10 minutes", "value": "5 ± 4", "unit": "%"}, {"measurement": "Inhibition rate", "setting": "[1]; 1 mg/kg i.v., 20 minutes", "value": "4 ± 4", "unit": "%"}, {"measurement": "Inhibition rate", "setting": "[1]; 1 mg/kg i.v., 30 minutes", "value": "2 ± 3", "unit": "%"}, {"measurement": "Inhibition rate", "setting": "[1]; 3 mg/kg i.v., 10 minutes", "value": "14 ± 15", "unit": "%"}, {"measurement": "Inhibition rate", "setting": "[1]; 3 mg/kg i.v., 20 minutes", "value": "16 ± 10", "unit": "%"}, {"measurement": "Inhibition rate", "setting": "[1]; 3 mg/kg i.v., 30 minutes", "value": "12 ± 12", "unit": "%"}, {"measurement": "Inhibition rate", "setting": "[1]; 5 mg/kg i.v., 10 minutes", "value": "38 ± 13", "unit": "%"}, {"measurement": "Inhibition rate", "setting": "[1]; 5 mg/kg i.v., 20 minutes", "value": "27 ± 6", "unit": "%"}, {"measurement": "Inhibition rate", "setting": "[1]; 5 mg/kg i.v., 30 minutes", "value": "22 ± 7", "unit": "%"}, {"measurement": "analgesic activity compared with morphine, in words", "setting": "[1]; mouse, i.v.", "value": "had an equal analgesic activity in its strength to morphine"}, {"measurement": "Inhibition rate", "setting": "[2]; compound (2) 7 mg/kg s.c. alone (morphine 0), 10 min after i.v. injection", "value": "30 ± 11", "unit": "%"}, {"measurement": "Inhibition rate", "setting": "[2]; compound (2) 7 mg/kg s.c. alone (morphine 0), 20 min after i.v. injection", "value": "35 ± 12", "unit": "%"}, {"measurement": "Inhibition rate", "setting": "[2]; compound (2) 7 mg/kg s.c. alone (morphine 0), 30 min after i.v. injection", "value": "37 ± 11", "unit": "%"}, {"measurement": "Inhibition rate", "setting": "[2]; compound (2) 7 mg/kg s.c. combined with morphine 1 mg/kg i.v., 10 min", "value": "31 ± 12", "unit": "%"}, {"measurement": "Inhibition rate", "setting": "[2]; compound (2) 7 mg/kg s.c. combined with morphine 1 mg/kg i.v., 20 min", "value": "36 ± 10", "unit": "%"}, {"measurement": "Inhibition rate", "setting": "[2]; compound (2) 7 mg/kg s.c. combined with morphine 1 mg/kg i.v., 30 min", "value": "32 ± 7", "unit": "%"}, {"measurement": "Inhibition rate", "setting": "[2]; compound (2) 7 mg/kg s.c. combined with morphine 3 mg/kg i.v., 10 min", "value": "47 ± 8", "unit": "%"}, {"measurement": "Inhibition rate", "setting": "[2]; compound (2) 7 mg/kg s.c. combined with morphine 3 mg/kg i.v., 20 min", "value": "50 ± 9", "unit": "%"}, {"measurement": "Inhibition rate", "setting": "[2]; compound (2) 7 mg/kg s.c. combined with morphine 3 mg/kg i.v., 30 min", "value": "38 ± 12", "unit": "%"}, {"measurement": "Inhibition rate", "setting": "[2]; compound (2) 7 mg/kg s.c. combined with morphine 5 mg/kg i.v., 10 min", "value": "73 ± 13", "unit": "%"}, {"measurement": "Inhibition rate", "setting": "[2]; compound (2) 7 mg/kg s.c. combined with morphine 5 mg/kg i.v., 20 min", "value": "77 ± 9", "unit": "%"}, {"measurement": "Inhibition rate", "setting": "[2]; compound (2) 7 mg/kg s.c. combined with morphine 5 mg/kg i.v., 30 min", "value": "78 ± 9", "unit": "%"}, {"measurement": "effect on the analgesic effect of morphine, in words", "setting": "[2]; mouse, compound s.c., morphine i.v.", "value": "greatly potentiated the analgesic effect of morphine"}, {"measurement": "Change of rectal temperature", "setting": "yeast-induced fever; 1 mg/kg s.c.", "value": "1.5 ± 0.2", "unit": "°C"}, {"measurement": "Change of rectal temperature", "setting": "yeast-induced fever; 3 mg/kg s.c.", "value": "0.5 ± 0.2", "unit": "°C"}, {"measurement": "Change of rectal temperature", "setting": "yeast-induced fever; 10 mg/kg s.c.", "value": "0.3 ± 0.1", "unit": "°C"}]}]}
